{
  "source": "patent US20190282616A1",
  "about": "“MACROPHAGES REDIRECT PHAGOCYTOSIS BY NON-PROFESSIONAL PHAGOCYTES AND INFLUENCE INFLAMMATION” (University of Virginia Patent Foundation, priority 2016, published 2019)",
  "key": {"[1]": {"system": "resident peritoneal macrophages", "assay": "Apoptotic cell engulfment by resident peritoneal macrophages", "assay_type": "cell-based, mouse", "conditions": "even with supra-physiological concentrations of IGF-1", "experimental": "(§1) To obtain bone-marrow derived macrophages, femurs were removed from 8 week old mice and flushed with 5 mL of sterile PBS containing 5% FBS. The cell suspension was centrifuged, treated with red blood cell lysis buffer, washed, and then plated onto sterile petri dishes in DMEM containing 10% L929 media, 10% FBS and 1% penicillin/streptomycin/glutamine (PSQ). Media was replenished every 2 to 3 days and differentiated cells were used at day 6 post-harvest. Resident peritoneal macrophages were obtained by flushing the peritoneal cavity of mice with 10 mL of cold PBS containing 5% FBS. Collected cells were spun down, resuspended in X-VIVO 10 (Lonza) and plated at a concentration of 3×10^5 cells per well in a 24 well plate for IGF-1 secretion assays, and 5×10^5 per well in a 24 well plate for engulfment assays. Floating cells were washed the next day and remaining peritoneal macrophages were used 2 days after isolation. Alveolar macrophages were isolated by flushing the lungs with 1 mL of cold PBS instilled intratracheally (five flushes). Collected cells were centrifuged, resuspended in F12K media containing 10% FBS and 1% PSQ, and seeded at 1×10^5 cells per well in a 48-well plate. All floating cells were washed away the next day and remaining cells were used in assays 2 days after isolation."}, "J774 macrophage cells": {"system": "J774 macrophage cells", "assay": "Apoptotic thymocyte phagocytosis by J774 macrophage cells", "assay_type": "cell-based", "conditions": "even with supra-physiological concentrations of IGF-1, every time point"}, "[2]": {"system": "resident peritoneal macrophages", "assay": "Liposome uptake by resident peritoneal macrophages", "assay_type": "cell-based, mouse", "conditions": "exposed to IGF-1 vs control", "experimental": "as §1"}, "IC-21 cells": {"system": "IC-21 cells", "assay": "Apoptotic thymocyte engulfment by IC-21 cells", "assay_type": "cell-based", "conditions": "indicated concentrations of mouse IGF-1 or human insulin"}, "LR73 cells [3]": {"system": "LR73 cells", "conditions": "liposomes of 150-200 nm; IGF-1 50 ng/mL, EGF or VEGF 100 ng/mL each", "experimental": "(§2) LR73, SVEC-40, BEAS-2B, and 16HBE14o-cells were seeded in a 24 well plate. Thymocytes were isolated from 4-6 week old mice and induced to undergo apoptosis with dexamethasone. Thymocytes or prepared microvesicles were then stained with either CypHer5E (GE Healthcare, PA15401) or TAMRA (Invitrogen, C-1171). LR73 and SVEC-40 cells were incubated with apoptotic thymocytes at a 1:10 phagocyte to target ratio, BEAS-2B at a 1:5 phagocyte to target ratio, and 16HBE14o—at a 1:20 phagocyte to target ratio for 2 hours. Mouse IGF-I (Sigma-Aldrich), human IGF-I (Sigma-Aldrich), human IGF-II (Sigma-Aldrich) were added to the phagocytes at the same time as addition of apoptotic targets. For IGFBP3 studies, IGFBP3 (Sigma-Aldrich) was added to media or supernatant from J774 cells for one hour to allow IGFBP3 to bind to any available IGF-I, then the mix is added to phagocytes along with apoptotic targets. For all pharmacological studies, phagocytes were pre-incubated with the compounds listed below for one hour prior to addition of apoptotic targets: cytochalasin D (Sigma-Aldrich, C8273, 1 μM), Latrunculin A (Tocris, 3973, 150 nM), CK-666 (Tocris, 3950, 25 μM-100 μM), OSI-906 (Selleckchem, S1091, 5 nM-40 nM), NVP-AEW541 (Selleckchem, S1034, 25 nM-100 nM), Rapamycin (Sigma-Aldrich, R0395, […]), MK-2206 2HCl (Selleckchem, S1078, 10 nM-1 U0126-EtOH (Selleckchem, S1102, […]), Wortmannin (Sigma-Aldrich, W1628, 50 nM-200 nM), Y27632 (Calbiochem, 688000, 3.75 μM-15 μM), or GSK269962 (Tocris, 4009, 80 nM-2 μM). […] Targets were then washed off three times with PBS, and the cells were dissociated from the plate with trypsin and the engulfment assessed by flow cytometry.\nLiposomes were prepared by dissolving the lipids (phosphatidylserine, dioleoyl phosphatidylcholine, cholesterol and the lipid DiD dye) in chloroform, evaporating chloroform under flow of argon gas in a glass vial, then subjecting the lipid layer to overnight lyophilization to remove traces of organic solvent. Then normal saline was added for hydration, and intense vortexing was preformed to prepare multilamellar vesicles (MIN). Liposomes were repeatedly filtered through a 0.2 um Nuclepore polycarbonate filter to prepare smaller particles. Particle size was verified by dynamic light scattering using Nicomp 370."}, "[4]": {"system": "16HBE14o- human airway epithelial cells", "assay": "In vitro engulfment assay: apoptotic thymocyte uptake by 16HBE14o- cells", "assay_type": "cell-based", "conditions": "IGF-1 treatment", "experimental": "LR73, SVEC-40, BEAS-2B, and 16HBE14o-cells were seeded in a 24 well plate. Thymocytes were isolated from 4-6 week old mice and induced to undergo apoptosis with dexamethasone. Thymocytes or prepared microvesicles were then stained with either CypHer5E (GE Healthcare, PA15401) or TAMRA (Invitrogen, C-1171). LR73 and SVEC-40 cells were incubated with apoptotic thymocytes at a 1:10 phagocyte to target ratio, BEAS-2B at a 1:5 phagocyte to target ratio, and 16HBE14o—at a 1:20 phagocyte to target ratio for 2 hours. Mouse IGF-I (Sigma-Aldrich), human IGF-I (Sigma-Aldrich), human IGF-II (Sigma-Aldrich) were added to the phagocytes at the same time as addition of apoptotic targets. For IGFBP3 studies, IGFBP3 (Sigma-Aldrich) was added to media or supernatant from J774 cells for one hour to allow IGFBP3 to bind to any available IGF-I, then the mix is added to phagocytes along with apoptotic targets. […] Targets were then washed off three times with PBS, and the cells were dissociated from the plate with trypsin and the engulfment assessed by flow cytometry."}, "[5]": {"system": "YFP airway epithelial cells", "assay": "In vivo engulfment assay: airway epithelial cells", "design": "species or system mouse", "conditions": "1 μg IGF-1 intranasally", "experimental": "CCSP-Cre/YFP mice were administered PBS or 1 μg of IGF-1 intranasally. One hour later, 100 million CypHer5E-labelled apoptotic thymocytes with or without IGF-I were injected intranasally for 3.5 hours. The BAL fluid was harvested and the lungs excised, minced, and digested into a single cell suspension. The cells were then stained with appropriate markers: CD11c and Siglec F for alveolar macrophage markers and EpCam (along with YFP expression) for airway epithelial cells and analyzed by flow cytometry to assess apoptotic cell uptake by the airway epithelial cells and the alveolar macrophages."}, "[6]": {"system": "IGF-1R and Akt phosphorylation in macrophages", "assay": "Immunoblotting of IGF-1R and Akt phosphorylation in macrophages", "assay_type": "cell-based", "conditions": "100 ng/mL mouse IGF-1", "experimental": "LR73, J774, or BEAS-2B cells were seeded in a 60 mm dish at a concentration of 5×10^5. Cells were serum-starved for 6 hours and then stimulated with 100 ng/mL of IGF-1 for various time points. Cells were lysed in RIPA buffer and used in Western blots. The blots were probed for phospho-Erk1/2 (Cell Signaling Technology, #4370), phospho-Akt (Cell Signaling Technology, #4060), phospho-IGF-1R (Cell Signaling, #3024), total Erk2 (Santa Cruz Biotechnology, #sc-154-G), total Akt (Cell Signaling Technology, #4691), total IGF-1R (Cell Signaling, #9750), and anti-B-actin-HRP (Sigma-Aldrich, #A3854) followed by chemiluminescence detection."}, "LR73 cells [7]": {"system": "LR73 cells", "assay": "In vitro engulfment assay: apoptotic thymocyte uptake by LR73 cells", "assay_type": "cell-based, hamster", "experimental": "as §2"}, "LR73 cells [8]": {"system": "LR73 cells", "assay": "In vitro engulfment assay: apoptotic thymocyte uptake by LR73 cells", "assay_type": "cell-based, hamster", "conditions": "LR73 cells pretreated with IGF-I, washed"}},
  "data": [
    {"substance": "insulin-like growth factor I [IGF-1]", "values": [
      {"measurement": "corpse uptake by resident peritoneal macrophages", "setting": "[1]", "result": "did not affect corpse uptake"},
      {"measurement": "corpse uptake by J774 cells", "setting": "J774 macrophage cells", "result": "did not affect corpse uptake"},
      {"measurement": "liposome uptake by peritoneal macrophages", "setting": "[2]", "result": "comparable liposome uptake as control treated cells"},
      {"measurement": "corpse uptake by IC-21 cells", "setting": "IC-21 cells", "result": "did not affect corpse uptake"},
      {"measurement": "uptake of PtdSer containing liposomes by LR73 cells", "setting": "LR73 cells [3]", "result": "enhanced the uptake of PtdSer containing liposomes"},
      {"measurement": "apoptotic thymocyte uptake by 16HBE14o- cells", "setting": "[4]", "result": "engulfment dampening effect of IGF-1 was also seen"},
      {"measurement": "apoptotic cell engulfment by YFP airway epithelial cells in vivo", "setting": "[5]; apoptotic thymocytes", "result": "decreased apoptotic cell engulfment"},
      {"measurement": "liposome uptake by YFP airway epithelial cells in vivo", "setting": "[5]; liposomes", "result": "enhanced lipo some uptake"},
      {"measurement": "early signaling in macrophages (IGF-1R and Akt phosphorylation)", "setting": "[6]", "result": "initiated early signaling in macrophages"},
      {"measurement": "engulfment with IGF-1 added simultaneously with apoptotic cells", "setting": "LR73 cells [7]; data not shown", "result": "inhibited engulfment similar to pre-treated cells"},
      {"measurement": "apoptotic cell uptake (engulfment) by LR73 cells", "setting": "LR73 cells [7]; soluble mediator alone, IGF-I at concentrations reported in serum (100-600 ng/mL), other factors over a range of concentrations", "result": "significantly dampened apoptotic cell uptake"},
      {"measurement": "apoptotic cell uptake by LR73 cells with macrophage produced IGF-1", "setting": "LR73 cells [7]; supernatant of J774 cells treated with rIL-4 for 24 hrs", "result": "could also suppress apoptotic cell uptake by LR73 cells"},
      {"measurement": "engulfment after washing phagocytes pre-treated with IGF-1 (reversibility)", "setting": "LR73 cells [8]", "result": "near complete restoration of engulfment"}
    ]}
  ]
}
